{
  "source": "paper PMC5650142",
  "about": "“GPR40 partial agonists and AgoPAMs: Differentiating effects on glucose and hormonal secretions in the rodent” (PLoS ONE, 2017)",
  "key": {"GK rats": {"system": "GK rats", "test": "GK rat chronic efficacy (28 days: glucose, food intake, body weight, GLP-1, GIP, PYY, insulin, glucagon)", "format": "in vivo", "design": "Food Intake Over Time (Fig 3C) / Total Body Weight Change Over Time / Active GLP-1 Levels Over Time: unit not given here", "conditions": "for Total Body Weight Change Over Time / Active GLP-1 Levels Over Time / GIP Levels Over Time / PYY Levels Over Time / Plasma Insulin Over Time: GK rats", "summary_of_the_method": "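Daily oral gavage for 28 days, AP1 or AP3 at 30 mg/kg in 0.5% methylcellulose; MK-8666 at 30 mg/kg in feed. Fed glucose, food intake and weight on days 10, 17, 23, 28; glucose, GLP-1, GIP, PYY after 6 h fast, 1 h post dose. Hormones by MSD immunoassay or bead panel.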"}, "[1]": {"system": "wild type and GPR40-/- mice", "test": "Mouse incretin measurements (plasma glucagon, wild type and GPR40-/- mice)", "format": "in vivo", "conditions": "for Plasma Glucagon: @ 30, individual animals (Fig 6A)", "description": "Wild type and GPR40-/- mice were weighed the day prior to dosing. Food was removed from mice at lights on. 2 hours later mice were dosed via oral gavage (PO) at a volume of 10 ml/kg with vehicle (0.5% methylcellulose), AP1 at 30 mg/kg, or AP3 at 30 mg/kg. At 60 minutes post dose, mice were euthanized via CO2 asphyxiation. Blood was collected via cardiac puncture.\nBlood for insulin, glucagon, GLP-1, GIP, and PYY measurements was collected into K2EDTA Microtainer tubes (BD, Franklin Lakes, NJ) pre-treated with DPP4 inhibitor (Millipore, Billerica, MA) and cOmplete™ Protease Inhibitor Cocktail Tablets (Roche Diagnostics, Indianapolis, IN). Tubes were centrifuged for 10 minutes at 5000 RPM, and plasma was aliquotted for analysis. Plasma insulin levels were measured via EIA (Mesoscale Discovery ELISA Kit, Gaithersburg MD). Rat plasma total GLP-1 was measured using Total GLP-1 (ver.2) Assay Kit (Cat#: K150JVC). The measurement of active GLP-1 was carried out in a similar manner as that described for total GLP-1 assay with the exception that MSD Active GLP-1 (ver. 2) assay kit (Cat# K150JWC) was used. Rat plasma glucagon was measured using an in-house glucagon assay developed as a MSD format sandwich immunoassay (Merck & Co., Inc., MRL, Kenilworth, NJ USA). The antibody specificity was cross validated via mass- spec using procedures described in Lee et al. Briefly, MSD Streptavidin Gold plates were coated with 2 μg/ml biotin mouse monoclonal antibody generated to glucagon. Test samples were added to the plates and a separate Sulfo- tagged monoclonal antibody was used to detect the captured glucagon protein (2 μg/ml). The ELISA was carried out in the standard reagents in the MSD format. The plate was read on the SECTOR Imager 6000 Reader. Metabolic hormones GIP (Gastric Inhibitory Polypeptide) and PYY (Peptide YY) were measured in rat plasma using the Rat Metabolic Magnetic Bead Panel (EMD Millipore, Billerica, MA). The assay was performed according to manufacturer protocol."}},
  "note": "“And” between values parts separate entries of the source, which are not always exact repeats. Equal entries are not always repeated.",
  "data": [
    {"smiles": "COc1ccc(F)c(-c2ccc([C@@H]3CCc4ccc([C@H](C5CC5)[C@H](C)C(=O)O)cc4O3)cc2)c1", "note": "[AP1]", "values": [
      {"measurement": "Food Intake Over Time (Fig 3C)", "setting": "GK rats; 30 mpk, Day 10", "result": "14.85 and 15.61 and 15.57 and 15.255 and 16.22"},
      {"measurement": "Food Intake Over Time (Fig 3C)", "setting": "GK rats; 30 mpk, Day 17", "result": "15.5286 and 15.8857 and 16.0214 and 17.2929 and 17.7357"},
      {"measurement": "Food Intake Over Time (Fig 3C)", "setting": "GK rats; 30 mpk, Day 23", "result": "16.8417 and 19.1417 and 18.7583 and 18.725 and 18.4"},
      {"measurement": "Food Intake Over Time (Fig 3C)", "setting": "GK rats; 30 mpk, Day 28", "result": "16.96 and 17.9 and 19.14 and 19.07 and 19.25"},
      {"measurement": "Fed glucose on day 28 (Fig 3B)", "setting": "GK rats; 30 mpk, day 28, fed, individual animals", "result": "126 and 113 and 121 and 107 and 114 and 98 and 108 and 105 and 131"},
      {"measurement": "fed blood glucose vs partial agonist MK-8666", "setting": "GK rats; GK rat, 30 mg/kg, day 28", "result": "significantly reduced"},
      {"measurement": "Total Body Weight Change Over Time", "setting": "GK rats; 30 mpk, Day 0, individual animals (Fig 3D)", "result": 0},
      {"measurement": "Active GLP-1 Levels Over Time", "setting": "GK rats; 30 mpk, Day 0, individual animals (Fig 4B), 30 mg/kg", "result": "1.001 and 1.9298 and 1.3237 and 1.012 and 1.8577 and 2.191 and 1.713 and 1.556 and 0.8866 and 1.073"},
      {"measurement": "GIP Levels Over Time", "setting": "GK rats; 30 mpk, Day 0, individual animals (Fig 4C), 30 mg/kg, in pg/mL (unit assumed)", "result": "80.27 and 43.35 and 55.2 and 66.33 and 82.49 and 41.1 and 77.69 and 54.81 and 38.69 and 31.07"},
      {"measurement": "PYY Levels Over Time", "setting": "GK rats; 30 mpk, Day 0, individual animals (Fig 4D), 30 mg/kg", "result": "60.82 and 59.71 and 48.43 and 38.89 and 91.83 and 69.38 and 126.38 and 46.38 (2×) and 80.42"},
      {"measurement": "Plasma Insulin Over Time", "setting": "GK rats; 30 mpk, Day 0, individual animals (Fig 5A), 30 mg/kg", "result": "1.323 ng/mL and 1.278 ng/mL and 2.387 ng/mL and 1.318 ng/mL and 1.715 ng/mL and 1.561 ng/mL and 2.638 ng/mL and 2.341 ng/mL and 1.122 ng/mL and 2.349 ng/mL"},
      {"measurement": "Total Body Weight Change Over Time", "setting": "GK rats; 30 mpk, Day 10, individual animals (Fig 3D), 30 mg/kg", "result": "10 and 3 (2×) and 13 and 6 and 2 (3×) and -13 and 5"},
      {"measurement": "Active GLP-1 Levels Over Time", "setting": "GK rats; 30 mpk, Day 10, individual animals (Fig 4B), 30 mg/kg", "result": "10.3955 and 6.299 and 7.593 and 12.0213 and 6.042 and 7.2 and 9.814 and 9.197 and 8.5449 and 7.4703"},
      {"measurement": "GIP Levels Over Time", "setting": "GK rats; 30 mpk, Day 10, individual animals (Fig 4C), 30 mg/kg, in pg/mL (unit assumed)", "result": "505.7 and 493.84 and 467.75 and 217.82 and 519.4 and 141.67 and 384.6 and 413 and 296.23 and 81.09"},
      {"measurement": "PYY Levels Over Time", "setting": "GK rats; 30 mpk, Day 10, individual animals (Fig 4D), 30 mg/kg, in pg/mL (unit assumed)", "result": "253.19 and 328.35 and 279.77 and 271.66 and 270.68 and 232.37 and 216.99 and 227.15 and 181.2 and 198.89"},
      {"measurement": "Plasma Insulin Over Time", "setting": "GK rats; 30 mpk, Day 10, individual animals (Fig 5A), 30 mg/kg", "result": "1.155 ng/mL and 0.724 ng/mL and 1.551 ng/mL and 0.8718 ng/mL and 1.112 ng/mL and 0.8329 ng/mL and 1.613 ng/mL and 0.7139 ng/mL and 1.088 ng/mL and 1.543 ng/mL"},
      {"measurement": "Total Body Weight Change Over Time", "setting": "GK rats; 30 mpk, Day 17, individual animals (Fig 3D), 30 mg/kg", "result": "18 (2×) and 8 and 24 and 16 and 0 and 7 and -9 and 10 and 9"},
      {"measurement": "Active GLP-1 Levels Over Time", "setting": "GK rats; 30 mpk, Day 17, individual animals (Fig 4B), 30 mg/kg", "result": "8.6 and 3.38 and 5.23 and 6.69 and 6.32 and 4.97 and 3.57 and 4.69 and 6.47 and 5.55"},
      {"measurement": "GIP Levels Over Time", "setting": "GK rats; 30 mpk, Day 17, individual animals (Fig 4C), 30 mg/kg, in pg/mL (unit assumed)", "result": "378.278 and 410.03 and 370.39 and 471.66 and 268.89 and 337.14 and 352.79 and 447.92 and 402.03"},
      {"measurement": "PYY Levels Over Time", "setting": "GK rats; 30 mpk, Day 17, individual animals (Fig 4D), 30 mg/kg, in pg/mL (unit assumed)", "result": "228.528 and 168.33 and 149.79 and 211.65 and 178.66 and 141.57 and 165.72 and 207.01 and 161.08"},
      {"measurement": "Plasma Insulin Over Time", "setting": "GK rats; 30 mpk, Day 17, individual animals (Fig 5A), 30 mg/kg", "result": "1.312 ng/mL and 1.435 ng/mL and 1.262 ng/mL and 0.9925 ng/mL and 0.7824 ng/mL and 0.7213 ng/mL and 1.004 ng/mL and 1.148 ng/mL and 1.876 ng/mL and 2.528 ng/mL"},
      {"measurement": "Total Body Weight Change Over Time", "setting": "GK rats; 30 mpk, Day 23, individual animals (Fig 3D), 30 mg/kg", "result": "24 and 11 and 37 and 25 and 27 and 22 and 16 and -6 and 9 and 12"},
      {"measurement": "Total Body Weight Change Over Time", "setting": "GK rats; 30 mpk, Day 28, individual animals (Fig 3D), 30 mg/kg", "result": "32 and 14 and 36 and 27 and 34 and 30 and 23 and 3 and 20 and 21"},
      {"measurement": "Active GLP-1 Levels Over Time", "setting": "GK rats; 30 mpk, Day 28, individual animals (Fig 4B), 30 mg/kg", "result": "4.803 and 5.789 and 8.538 and 7.972 and 5.7178 and 6.58 and 6.497 and 8.013 and 7.134 and 7.267"},
      {"measurement": "GIP Levels Over Time", "setting": "GK rats; 30 mpk, Day 28, individual animals (Fig 4C), 30 mg/kg, in pg/mL (unit assumed)", "result": "265.13 and 306.48 and 225.82 and 160.64 and 220.15 and 277.09 and 298.29 and 238.76 and 210.52 and 175.96"},
      {"measurement": "PYY Levels Over Time", "setting": "GK rats; 30 mpk, Day 28, individual animals (Fig 4D), 30 mg/kg, in pg/mL (unit assumed)", "result": "152.15 and 162.1 and 214.06 and 98.83 and 138.17 and 173.94 and 241.37 and 220.84 and 169.14 and 119.76"},
      {"measurement": "Plasma Insulin Over Time", "setting": "GK rats; 30 mpk, Day 28, individual animals (Fig 5A), 30 mg/kg", "result": "1.27 ng/mL and 1.377 ng/mL and 1.276 ng/mL and 0.4335 ng/mL and 1.675 ng/mL and 1.248 ng/mL and 2.339 ng/mL and 0.9305 ng/mL and 0.8869 ng/mL and 1.165 ng/mL"},
      {"measurement": "Plasma Glucagon", "setting": "[1]; KO mice", "result": "13.34 pg/mL and 13.81 pg/mL and 52.65 pg/mL and 26.95 pg/mL and 36.14 pg/mL and 35.65 pg/mL"},
      {"measurement": "circulating glucagon", "setting": "[1]; WT mice, 30 mg/kg PO, 1h post dose", "result": "increase"},
      {"measurement": "Plasma Glucagon", "setting": "[1]; WT mice", "result": "101.77 pg/mL and 108.33 pg/mL and 114.33 pg/mL and 421.21 pg/mL and 183.75 pg/mL and 252.53 pg/mL and 120.41 pg/mL"}
    ]}
  ]
}
